Data on 23 molecules can be found in patent EP2406206B1, “TETRAHYDRONAPHTHALEN-2-OL DERIVATIVES” (MSD Oss B.V., priority 2009, dated 2010).

A value given as a limit tells only on which side of the number the result lay.

One may read the EC50 as the concentration that produces a half-maximal response.

The target of data set [1] is human estrogen receptor β receptor (hERβ) (Homo sapiens, UniProt Q92731). Put plainly: ERβ transactivation bioassay in recombinant CHO cells (rat oxytocin promoter, luciferase reporter). Type of data set: cell-based. The note with it: for ERβ/ERα ratio: ERβ agonistic selectivity over ERα, transactivation data; for EC50: transactivation of luciferase via hERβ in CHO cells, read-out: ERβ agonistic EC50. The method, then: The estrogenic and antiestrogenic activity of compounds was determined in an in vitro bioassay with recombinant Chinese hamster ovary (CHO) cells stably co-transfected with the human estrogen receptor α (hERα) or β receptor (hERβ), the rat oxytocin promoter (RO) and the luciferase reporter gene (LUC). The estrogenic activity of a test compound to stimulate the transactivation of the enzyme luciferase mediated via the estrogen receptors hERα or hERβ is expressed in nM. The assay was performed as described by De Gooyer et al., Steroids 68 (2003), 21-30. Table 7. ERβ and ERα transactivation data
human estrogen receptor β receptor (hERβ), sequence (Q92731 whole entry): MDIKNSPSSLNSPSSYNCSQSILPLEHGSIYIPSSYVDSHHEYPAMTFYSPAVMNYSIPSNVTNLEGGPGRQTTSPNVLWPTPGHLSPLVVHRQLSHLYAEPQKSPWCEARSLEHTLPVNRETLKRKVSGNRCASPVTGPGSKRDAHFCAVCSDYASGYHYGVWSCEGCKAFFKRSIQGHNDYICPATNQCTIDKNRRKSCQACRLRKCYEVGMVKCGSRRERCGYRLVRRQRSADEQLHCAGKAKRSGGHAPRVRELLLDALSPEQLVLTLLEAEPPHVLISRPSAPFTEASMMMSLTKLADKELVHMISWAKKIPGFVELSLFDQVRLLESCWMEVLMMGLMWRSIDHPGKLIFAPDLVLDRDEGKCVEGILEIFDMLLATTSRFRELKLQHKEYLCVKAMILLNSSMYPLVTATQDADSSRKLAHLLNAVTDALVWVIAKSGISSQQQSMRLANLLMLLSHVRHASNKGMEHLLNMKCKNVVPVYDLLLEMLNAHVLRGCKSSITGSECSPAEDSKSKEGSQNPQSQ

Data set [2] in a line: metabolic stability in human hepatocytes. Type of data set: in vitro ADME. The note with it: cryopreserved human hepatocytes in suspension, tetrahydronaphthalen-2-ol, 37°C, sampled 0-120 min, LC-MS/MS, read-out: Human hepatocyte T1/2. How it is done: A number of compounds 9, 11 and 12 were tested on metabolic stability in human hepatocytes. The hepatic stability was compared to corresponding chroman compounds 25, 26 or 27 (see structures below).
Test compounds were diluted to 3 µM in incubation medium. Then 40 µl of the 3 µM test compounds was pipetted into a 96 well microtiter plate (flat bottom). Hepatocytes (stored at -140 °C) were thawed in a 37°C water bath. The cells were resuspended into pre-warmed thawing medium and were centrifuged for 5 minutes at 50g at room temperature. The supernatant was discarded and the remaining cell pellet was resuspended in warm incubation medium and diluted to 7.5 E5 cells/ml. Then 80 µl of the cell suspension was added to each well of the 96 well microtiter plate containing the test compounds. The resulting mixture was incubated at 37°C and was sampled at t=0, 5, 30, 60, and 120 min. The samples were analyzed by LC-MS/MS to determine the content of unchanged test compound. Based on the rate of reduction of the content of test compound over time, the half-live (T1/2) was calculated. Metabolic stability in human hepatocytes

For `CC1C(c2ccc(O)cc2)Cc2ccc(O)cc2C1Cc1ccccc1F` (racemic) [Compound 9a, 8-(2-fluorobenzyl)-6-(4-hydroxyphenyl)-7-methyl-5,6,7,8-tetrahydronaphthalen-2-ol], in data set [1], the ERβ/ERα ratio came out at 193 and the EC50 was determined as 0.45 nM.

For the molecule `CCC1C(c2ccc(O)cc2)Cc2ccc(O)cc2C1Cc1ccccc1F` (racemic) [Compound 9b, 8-(2-fluorobenzyl)-6-(4-hydroxyphenyl)-7-ethyl-5,6,7,8-tetrahydronaphthalen-2-ol], in data set [1], the ERβ/ERα ratio was 77 and the EC50 came to 0.35 nM. Besides, in data set [2], the half-life at 1 µM stood at 1.17 h.

Turning to `CCCC1C(c2ccc(O)cc2)Cc2ccc(O)cc2C1Cc1ccccc1F` (racemic) [Compound 9c, 8-(2-fluorobenzyl)-6-(4-hydroxyphenyl)-7-propyl-5,6,7,8-tetrahydronaphthalen-2-ol], in data set [1], the ERβ/ERα ratio worked out at 33 and the half-maximal effective concentration (EC50) was determined as 0.4 nM.

In the case of `CC1C(c2ccc(O)cc2)Cc2ccc(O)cc2C1Cc1ccccc1` (racemic) [Compound 9d, 8-benzyl-6-(4-hydroxyphenyl)-7-methyl-5,6,7,8-tetrahydronaphthalen-2-ol], in data set [1], the ERβ/ERα ratio was 51 and the EC50 was determined as 0.68 nM.

For `CCC1C(c2ccc(O)cc2)Cc2ccc(O)cc2C1Cc1ccccc1` (racemic) [Compound 9e, 8-benzyl-7-ethyl-6-(4-hydroxyphenyl)-5,6,7,8-tetrahydronaphthalen-2-ol], in data set [1], the ERβ/ERα ratio is 18 and the 50% effective concentration (EC50) turned out to be 0.42 nM.

Consider `CC1C(c2ccc(O)cc2)Cc2ccc(O)cc2C1Cc1cccc(F)c1` (racemic) [Compound 9f, 8-(3-fluorobenzyl)-6-(4-hydroxyphenyl)-7-methyl-5,6,7,8-tetrahydronaphthalen-2-ol], for which, in data set [1], the ERβ/ERα ratio is listed as greater than 33 and the concentration for a half-maximal effect (EC50) is 3 nM.

For `CC1C(c2ccc(O)cc2)Cc2ccc(O)cc2C1Cc1ccc(F)cc1` (racemic) [Compound 9g, 8-(4-fluorobenzyl)-6-(4-hydroxyphenyl)-7-methyl-5,6,7,8-tetrahydronaphthalen-2-ol], in data set [1], the ERβ/ERα ratio was greater than 43 and the EC50 was determined as 2.3 nM.

Consider `CC1C(c2ccc(O)cc2)Cc2ccc(O)cc2C1Cc1cc(F)ccc1F` (racemic) [Compound 9h, 8-(2,5-difluorobenzyl)-6-(4-hydroxyphenyl)-7-methyl-5,6,7,8-tetrahydronaphthalen-2-ol], for which, in data set [1], the ERβ/ERα ratio was greater than 167 and the EC50 came to 0.6 nM.

As to `CC1C(c2ccc(O)cc2)Cc2ccc(O)cc2C1Cc1c(F)cccc1F` (racemic) [Compound 9i, 8-(2,6-difluorobenzyl)-6-(4-hydroxyphenyl)-7-methyl-5,6,7,8-tetrahydronaphthalen-2-ol], in data set [1], the ERβ/ERα ratio is given as greater than 102 and the half-maximal effective concentration (EC50) was 0.98 nM.

As for `CC1C(c2ccc(O)cc2)Cc2ccc(O)cc2C1Cc1ccccc1C#N` (racemic) [Compound 9j, 2-((7-hydroxy-3-(4-hydroxyphenyl)-2-methyl-1,2,3,4-tetrahydronaphthalen-1-yl)methyl)benzonitrile], in data set [1], the ERβ/ERα ratio turned out to be 605 and the EC50 stood at 0.56 nM. Also, the half-life at 1 µM in data set [2] turned out to be 0.623 h.

As to `CCC1C(c2ccc(O)cc2)Cc2ccc(O)cc2C1Cc1ccccc1C#N` (racemic) [Compound 9k, 2-((2-ethyl-7-hydroxy-3-(4-hydroxyphenyl)-1,2,3,4-tetrahydronaphthalen-1-yl)methyl)benzonitrile], in data set [1], the ERβ/ERα ratio is listed as greater than 204 and the half-maximal effective concentration (EC50) came to 0.49 nM.

Take `CC1C(c2ccc(O)cc2)Cc2ccc(O)cc2C1Cc1ccccc1Cl` (racemic) [Compound 9l, 8-(2-chlorobenzyl)-6-(4-hydroxyphenyl)-7-methyl-5,6,7,8-tetrahydronaphthalen-2-ol]: in data set [1], the ERβ/ERα ratio was found to be 339 and the EC50 came out at 0.33 nM.

Take `CCC1C(c2ccc(O)cc2)Cc2ccc(O)cc2C1Cc1ccc(O)cc1` (racemic) [Compound 9m, 7-ethyl-8-(4-hydroxybenzyl)-6-(4-hydroxyphenyl)-5,6,7,8-tetrahydronaphthalen-2-ol]: in data set [1], the ERβ/ERα ratio amounted to 2 and the EC50 was found to be 31 nM.

Turning to `CCC1C(c2ccc(O)cc2F)Cc2ccc(O)cc2C1Cc1ccccc1F` (racemic) [Compound 9o, 7-ethyl-6-(2-fluoro-4-hydroxyphenyl)-8-(2-fluorobenzyl)-5,6,7,8-tetrahydronaphthalen-2-ol], in data set [1], the ERβ/ERα ratio amounted to 42 and the concentration for a half-maximal effect (EC50) came out at 0.17 nM. Further, the half-life at 1 µM in data set [2] came to 1.22 h.

Turning to `CC1C(c2ccc(O)cc2F)Cc2ccc(O)cc2C1Cc1ccccc1F` (racemic) [Compound 9p, 6-(2-fluoro-4-hydroxyphenyl)-8-(2-fluorobenzyl)-7-methyl-5,6,7,8-tetrahydronaphthalen-2-ol], in data set [1], the ERβ/ERα ratio was greater than 333 and the 50% effective concentration (EC50) was 0.3 nM. Besides, the half-life at 1 µM in data set [2] was greater than 2 h.

On to `Cc1cc(C2Cc3ccc(O)cc3C(Cc3ccccc3F)C2C)ccc1O` (racemic) [Compound 9r, 8-(2-fluorobenzyl)-6-(4-hydroxy-3-methylphenyl)-7-methyl-5,6,7,8-tetrahydronaphthalen-2-ol], for which, in data set [1], the ERβ/ERα ratio was greater than 83 and the concentration giving a half-maximal response (EC50) worked out at 1.2 nM. Besides, the half-life at 1 µM in data set [2] is 0.965 h.

Turning to `CC1C(c2ccc(O)cc2)Cc2ccc(O)c(F)c2C1Cc1ccccc1F` (racemic) [Compound 9s, 1-fluoro-8-(2-fluorobenzyl)-5,6,7,8-tetrahydro-6-(4-hydroxyphenyl)-7-methylnaphthalen-2-ol], in data set [1], the ERβ/ERα ratio is greater than 21 and the EC50 came to 4.7 nM. For the same molecule, the half-life at 1 µM in data set [2] was 1.61 h.

With `CCC1C(c2ccc(O)cc2)Cc2ccc(O)cc2C1Cc1ccccc1C` (racemic) [Compound 9v, 7-ethyl-6-(4-hydroxyphenyl)-8-(2-methylbenzyl)-5,6,7,8-tetrahydronaphthalen-2-ol], in data set [1], the ERβ/ERα ratio is listed as greater than 63 and the EC50 worked out at 1.6 nM. In data set [2], the half-life at 1 µM is 1.16 h.

As to `CCC1C(c2ccc(O)cc2)Cc2ccc(O)cc2C1Cc1ccc(F)cc1` (racemic) [Compound 9w, 7-ethyl-8-(4-fluorobenzyl)-6-(4-hydroxyphenyl)-5,6,7,8-tetrahydronaphthalen-2-ol], in data set [1], the ERβ/ERα ratio was 12 and the EC50 was 0.91 nM.

Turning to `C[C@H]1[C@@H](c2ccc(O)cc2)Cc2ccc(O)cc2[C@H]1Cc1c(F)cccc1F` (single isomer, unassigned) [Compound 11i], in data set [1], the ERβ/ERα ratio is greater than 213 and the 50% effective concentration (EC50) was 0.47 nM. Further, in data set [1] (ratio of the activities of the eutomer and the distomer on ERβ), the ERβ eudismic ratio was greater than 212.

Consider `C[C@@H]1[C@H](c2ccc(O)cc2)Cc2ccc(O)cc2[C@@H]1Cc1ccccc1F` (single isomer, unassigned) [Compound 12a], for which the half-life at 1 µM in data set [2] came out at 1.11 h.

Regarding `C[C@@H]1[C@H](c2ccc(O)cc2)Cc2ccc(O)cc2[C@@H]1Cc1c(F)cccc1F` (single isomer, unassigned) [Compound 12i], the half-life at 1 µM in data set [2] was 1.12 h.

In the case of `COc1ccccc1CC1c2cc(O)ccc2CC(c2ccc(O)cc2)C1C` (stereo not shown) [Compound 8n, 6-(4-hydroxyphenyl)-8-(2-methoxybenzyl)-7-methyl-5,6,7,8-tetrahydronaphthalen-2-ol], in data set [1], the ERβ/ERα ratio is recorded as greater than 40 and the EC50 was determined as 2.5 nM.
